{"source": "paper PMC5218480", "about": "(PLoS ONE, 2017)", "test_system": "MV-4-11 cells", "assay": "Gene expression microarray analysis (Affymetrix PrimeView) and GSEA", "assay_type": "cell-based, human", "set-up": "RFU PODN (11730768_x_at) / Fold change /veh PODN (11730768_x_at) / RFU LINC00158 (11744669_a_at) / Fold change /veh LINC00158 (11744669_a_at) / RFU DUSP10 (11751237_a_at) / Fold change /veh DUSP10 (11751237_a_at) / RFU ID3 (11757404_x_at) / Fold change /veh ID3 (11757404_x_at) / RFU PLEKHG5 (11737974_s_at) / Fold change /veh PLEKHG5 (11737974_s_at) / RFU LRRC4B (11730491_at) / Fold change /veh LRRC4B (11730491_at) / RFU GIMAP4 (11747438_a_at) / Fold change /veh GIMAP4 (11747438_a_at) / RFU KRT8 (11758183_x_at) / Fold change /veh KRT8 (11758183_x_at) / RFU CNN1 (11734310_a_at) / Fold change /veh CNN1 (11734310_a_at) / RFU VPS37D (11726825_at) / Fold change /veh VPS37D (11726825_at) / RFU C10orf10 (11716522_x_at) / Fold change /veh C10orf10 (11716522_x_at) / RFU KIR2DL2 /// KIR2DL4 /// KIR2DL5A /// KIR2DL5B /// KIR2DS1 /// KIR2DS2 /// KIR2DS3 /// KIR2DS4 /// KIR3DL3 /// KIR3DL3 /// KIR3DS1 (11738374_at) / Fold change /veh KIR2DL2 /// KIR2DL4 /// KIR2DL5A /// KIR2DL5B /// KIR2DS1 /// KIR2DS2 /// KIR2DS3 /// KIR2DS4 /// KIR3DL3 /// KIR3DL3 /// KIR3DS1 (11738374_at) / RFU C1QL1 (11718748_at) / Fold change /veh C1QL1 (11718748_at) / RFU TMPRSS4 (11747572_a_at) / Fold change /veh TMPRSS4 (11747572_a_at) / RFU HAMP (11756126_x_at) / Fold change /veh HAMP (11756126_x_at) / RFU RNFT2 (11725882_a_at) / Fold change /veh RNFT2 (11725882_a_at) / RFU NR4A2 (11747474_a_at) / Fold change /veh NR4A2 (11747474_a_at) / RFU ABCC12 (11746883_a_at) / Fold change /veh ABCC12 (11746883_a_at) / RFU TMEM136 (11760407_x_at) / Fold change /veh TMEM136 (11760407_x_at) / RFU CLDN22 /// WWC2 (11732394_at) / Fold change /veh CLDN22 /// WWC2 (11732394_at) / RFU HLA-DPB1 (11760878_x_at) / Fold change /veh HLA-DPB1 (11760878_x_at) / RFU SPINT1 (11716480_a_at) / Fold change /veh SPINT1 (11716480_a_at) / RFU GAP43 (11754022_s_at) / Fold change /veh GAP43 (11754022_s_at) / RFU A4GNT (11735810_at) / Fold change /veh A4GNT (11735810_at) / RFU PRB3 (11715151_x_at) / Fold change /veh PRB3 (11715151_x_at) / RFU TUBB4B (11761932_at) / Fold change /veh TUBB4B (11761932_at) / RFU CAPN14 (11732068_a_at) / Fold change /veh CAPN14 (11732068_a_at) / RFU TMCC2 (11721928_a_at) / Fold change /veh TMCC2 (11721928_a_at) / RFU IRGQ (11745062_a_at) / Fold change /veh IRGQ (11745062_a_at) / RFU FAM174B (11720279_a_at) / Fold change /veh FAM174B (11720279_a_at) / RFU TMPRSS4 (11748680_a_at) / Fold change /veh TMPRSS4 (11748680_a_at) / RFU FAM212B (11763350_a_at) / Fold change /veh FAM212B (11763350_a_at) / RFU PLEKHG5 (11743358_a_at) / Fold change /veh PLEKHG5 (11743358_a_at) / RFU ZSCAN30 (11745921_a_at) / Fold change /veh ZSCAN30 (11745921_a_at) / RFU CMKLR1 (11741424_a_at) / Fold change /veh CMKLR1 (11741424_a_at) / RFU LOC101060620 /// MAPK8IP1 (11723275_at) / Fold change /veh LOC101060620 /// MAPK8IP1 (11723275_at) / RFU SPTSSB (11747773_x_at) / Fold change /veh SPTSSB (11747773_x_at) / RFU PRSS12 (11739890_at) / Fold change /veh PRSS12 (11739890_at) / RFU BIN1 (11741810_x_at) / Fold change /veh BIN1 (11741810_x_at) / RFU WNT11 (11732464_a_at) / Fold change /veh WNT11 (11732464_a_at) / RFU C10orf10 (11716521_a_at) / Fold change /veh C10orf10 (11716521_a_at) / RFU C5orf56 (11738089_at) / Fold change /veh C5orf56 (11738089_at) / RFU CYB561 (11721691_x_at) / Fold change /veh CYB561 (11721691_x_at) / RFU ANKRD19P (11752326_a_at) / Fold change /veh ANKRD19P (11752326_a_at) / RFU OR2T12 /// OR2T33 /// OR2T8 (11738714_s_at) / Fold change /veh OR2T12 /// OR2T33 /// OR2T8 (11738714_s_at) / RFU VCAN (11748164_a_at) / Fold change /veh VCAN (11748164_a_at) / RFU JSRP1 (11732532_at) / Fold change /veh JSRP1 (11732532_at) / RFU KRTAP10-11 (11738290_x_at) / Fold change /veh KRTAP10-11 (11738290_x_at) / RFU MYO3A (11730013_a_at) / Fold change /veh MYO3A (11730013_a_at) / RFU EBF3 (11725865_a_at) / Fold change /veh EBF3 (11725865_a_at) / RFU CAMK2N1 (11719241_x_at) / Fold change /veh CAMK2N1 (11719241_x_at) / RFU C5orf56 (11738088_a_at) / Fold change /veh C5orf56 (11738088_a_at) / RFU OLFML3 (11715873_a_at) / Fold change /veh OLFML3 (11715873_a_at) / RFU LOC100653217 /// NTM (11731650_a_at) / Fold change /veh LOC100653217 /// NTM (11731650_a_at) / RFU MAPK11 (11762145_a_at) / Fold change /veh MAPK11 (11762145_a_at) / RFU FIZ1 (11724087_x_at) / Fold change /veh FIZ1 (11724087_x_at) / RFU OASL (11726364_x_at) / Fold change /veh OASL (11726364_x_at) / RFU SOX15 (11748057_x_at) / Fold change /veh SOX15 (11748057_x_at) / RFU CD79A (11719716_a_at) / Fold change /veh CD79A (11719716_a_at) / RFU HIST1H1D (11736915_at) / Fold change /veh HIST1H1D (11736915_at) / RFU CASKIN2 (11723855_a_at) / Fold change /veh CASKIN2 (11723855_a_at) / RFU LOC730098 (11760151_x_at) / Fold change /veh LOC730098 (11760151_x_at) / RFU OR4N2 (11742367_at) / Fold change /veh OR4N2 (11742367_at) / RFU PRRT2 (11749266_a_at) / Fold change /veh PRRT2 (11749266_a_at) / RFU SNX32 (11753110_a_at) / Fold change /veh SNX32 (11753110_a_at) / RFU CDHR5 (11726645_a_at) / Fold change /veh CDHR5 (11726645_a_at) / RFU RCAN1 (11760418_a_at) / Fold change /veh RCAN1 (11760418_a_at) / RFU FAM167A (11723789_a_at) / Fold change /veh FAM167A (11723789_a_at) / RFU FAM26E (11764081_at) / Fold change /veh FAM26E (11764081_at) / RFU ISYNA1 (11749810_s_at) / Fold change /veh ISYNA1 (11749810_s_at) / RFU ACY1 (11761880_at) / Fold change /veh ACY1 (11761880_at) / RFU 11764098_at / Fold change /veh 11764098_at / RFU SAMD14 (11745864_x_at) / Fold change /veh SAMD14 (11745864_x_at) / RFU NPB (11741838_a_at) / Fold change /veh NPB (11741838_a_at) / RFU TMPRSS6 (11731388_a_at) / Fold change /veh TMPRSS6 (11731388_a_at) / RFU KRTAP10-2 (11738614_at) / Fold change /veh KRTAP10-2 (11738614_at) / RFU ARHGAP8 /// PRR5-ARHGAP8 (11727945_x_at) / Fold change /veh ARHGAP8 /// PRR5-ARHGAP8 (11727945_x_at) / RFU KRTAP5-7 /// NADSYN1 (11734609_at) / Fold change /veh KRTAP5-7 /// NADSYN1 (11734609_at) / RFU RASL12 (11751679_a_at) / Fold change /veh RASL12 (11751679_a_at) / RFU CDKN2B (11736163_a_at) / Fold change /veh CDKN2B (11736163_a_at) / RFU PRF1 (11729649_at) / Fold change /veh PRF1 (11729649_at) / RFU, ZNF638 /// ZNF638-IT1 / Fold change vs veh, ZNF638 /// ZNF638-IT1 / RFU, PANK3 / Fold change vs veh, PANK3 / RFU, SH3YL1 / Fold change vs veh, SH3YL1 / RFU, ZEB2 / Fold change vs veh, ZEB2 / RFU, NRIP1 / Fold change vs veh, NRIP1 / RFU, PTTG1IP / Fold change vs veh, PTTG1IP / RFU, CAPN2 / Fold change vs veh, CAPN2 / RFU, MED14 / Fold change vs veh, MED14 / RFU, SNORA58 / Fold change vs veh, SNORA58 / RFU, C1orf63 / Fold change vs veh, C1orf63 / RFU, LRRFIP1 / Fold change vs veh, LRRFIP1 / RFU, NDUFAF7 / Fold change vs veh, NDUFAF7 / RFU, SLC12A2 / Fold change vs veh, SLC12A2 / RFU, IBTK / Fold change vs veh, IBTK / RFU, ESF1 / Fold change vs veh, ESF1 / Fold change vs veh, TMEM50B / RFU, TAOK1 / Fold change vs veh, TAOK1 / RFU, ACBD3 / Fold change vs veh, ACBD3 / RFU, TMA16 / Fold change vs veh, TMA16 / RFU, RWDD3 / Fold change vs veh, RWDD3 / RFU, BCAT1 / Fold change vs veh, BCAT1 / RFU, EDEM3 / Fold change vs veh, EDEM3 / RFU, TMEM33 / Fold change vs veh, TMEM33 / RFU, WDR75 / Fold change vs veh, WDR75 / RFU, AHCTF1 / Fold change vs veh, AHCTF1 / RFU, TFRC / Fold change vs veh, TFRC / RFU, ZDHHC17 / Fold change vs veh, ZDHHC17 / RFU, NOM1 / Fold change vs veh, NOM1 / RFU, ARL8B / Fold change vs veh, ARL8B / RFU, ZBTB11 / Fold change vs veh, ZBTB11 / RFU, TAMM41 / Fold change vs veh, TAMM41 / RFU, KIAA1704 /// LOC100996395 / Fold change vs veh, KIAA1704 /// LOC100996395 / RFU, ING1 / Fold change vs veh, ING1 / RFU, TRMT61B / Fold change vs veh, TRMT61B / RFU, FUBP3 / Fold change vs veh, FUBP3 / RFU, TP53 / Fold change vs veh, TP53 / RFU, TNKS2 / Fold change vs veh, TNKS2 / RFU, ZFP14 / Fold change vs veh, ZFP14 / RFU, ACTR2 / Fold change vs veh, ACTR2 / RFU, PPP3R1 / Fold change vs veh, PPP3R1 / RFU, PIK3R1 / Fold change vs veh, PIK3R1 / RFU, HNRNPA1 / Fold change vs veh, HNRNPA1 / RFU, RNF170 / Fold change vs veh, RNF170 / RFU, ZNF28 / Fold change vs veh, ZNF28 / RFU, RNGTT / Fold change vs veh, RNGTT / RFU, OGT / Fold change vs veh, OGT / RFU, BRD1 / Fold change vs veh, BRD1 / RFU, MARS / Fold change vs veh, MARS / RFU, ZNF655 / Fold change vs veh, ZNF655 / RFU, FAHD1 / Fold change vs veh, FAHD1 / RFU, BDP1 / Fold change vs veh, BDP1 / RFU, LRRCC1 / Fold change vs veh, LRRCC1 / RFU, ARID1A / Fold change vs veh, ARID1A / RFU, ZNF146 / Fold change vs veh, ZNF146 / RFU, ZNF330 / Fold change vs veh, ZNF330 / RFU, GPN3 / Fold change vs veh, GPN3 / RFU, C9orf123 / Fold change vs veh, C9orf123 / RFU, N4BP2L2 / Fold change vs veh, N4BP2L2 / RFU, ARFIP1 / Fold change vs veh, ARFIP1 / RFU, FAM179B / Fold change vs veh, FAM179B / RFU, BCL10 / Fold change vs veh, BCL10 / RFU, UHRF1BP1L / Fold change vs veh, UHRF1BP1L / RFU, BET1 / Fold change vs veh, BET1 / RFU, CNOT2 / Fold change vs veh, CNOT2 / RFU, ZNF268 / Fold change vs veh, ZNF268 / Fold change vs veh, ZNF507 / RFU, DGCR2 / Fold change vs veh, DGCR2 / RFU, WDSUB1 / Fold change vs veh, WDSUB1 / Fold change vs veh, HSP90B1 /// MIR3652 / RFU, ADSS / Fold change vs veh, ADSS / RFU, GK / Fold change vs veh, GK / RFU, ZNF148 / Fold change vs veh, ZNF148 / RFU, TAF9 / Fold change vs veh, TAF9 / RFU, SLC1A5 / Fold change vs veh, SLC1A5 / RFU, SLMO2 / Fold change vs veh, SLMO2 / RFU, ABCC4 / Fold change vs veh, ABCC4 / RFU, LOC101060439 /// RAP1B / Fold change vs veh, LOC101060439 /// RAP1B / RFU, RFX7 / Fold change vs veh, RFX7 / RFU, GTPBP10 / Fold change vs veh, GTPBP10 / RFU, CNEP1R1 / Fold change vs veh, CNEP1R1 / RFU, BIVM-ERCC5 /// ERCC5 / Fold change vs veh, BIVM-ERCC5 /// ERCC5 / RFU, ILF3 / Fold change vs veh, ILF3 / RFU 11762660_at / Fold change /veh 11762660_at / RFU VCAN (11757783_s_at) / Fold change /veh VCAN (11757783_s_at) / RFU DDX43 (11728927_at) / Fold change /veh DDX43 (11728927_at) / RFU KRT8 (11758188_x_at) / Fold change /veh KRT8 (11758188_x_at) / RFU NKD1 (11759106_at) / Fold change /veh NKD1 (11759106_at) / RFU SRD5A1 (11742802_a_at) / Fold change /veh SRD5A1 (11742802_a_at) / RFU TPSAB1 /// TPSB2 (11721975_s_at) / Fold change /veh TPSAB1 /// TPSB2 (11721975_s_at) / RFU GSTM3 (11746129_a_at) / Fold change /veh GSTM3 (11746129_a_at) / RFU IL23R (11737362_x_at) / Fold change /veh IL23R (11737362_x_at) / RFU TMEM51 (11727254_a_at) / Fold change /veh TMEM51 (11727254_a_at) / RFU PIWIL2 (11732686_x_at) / Fold change /veh PIWIL2 (11732686_x_at) / RFU ORM1 (11744905_x_at) / Fold change /veh ORM1 (11744905_x_at) / RFU CCDC152 (11743942_at) / Fold change /veh CCDC152 (11743942_at) / RFU ECM1 (11717891_a_at) / Fold change /veh ECM1 (11717891_a_at) / RFU IL23R (11748794_a_at) / Fold change /veh IL23R (11748794_a_at) / RFU TNFAIP8L3 (11732012_x_at) / Fold change /veh TNFAIP8L3 (11732012_x_at) / RFU MBOAT4 (11741988_at) / Fold change /veh MBOAT4 (11741988_at) / RFU 11764193_at / Fold change /veh 11764193_at / RFU TMEM53 (11763286_at) / Fold change /veh TMEM53 (11763286_at) / RFU MAGEB2 (11727129_at) / Fold change /veh MAGEB2 (11727129_at) / RFU TMEM200A (11744735_a_at) / Fold change /veh TMEM200A (11744735_a_at) / RFU CCDC152 (11751479_a_at) / Fold change /veh CCDC152 (11751479_a_at) / RFU FAM211A (11726209_a_at) / Fold change /veh FAM211A (11726209_a_at) / RFU RGS16 (11746705_a_at) / Fold change /veh RGS16 (11746705_a_at) / RFU VCAN (11755009_s_at) / Fold change /veh VCAN (11755009_s_at) / RFU RHOB (11743442_s_at) / Fold change /veh RHOB (11743442_s_at) / RFU RGS16 (11720943_a_at) / Fold change /veh RGS16 (11720943_a_at) / RFU RGS16 (11720944_at) / Fold change /veh RGS16 (11720944_at) / RFU, VPS4B / Fold change vs veh, VPS4B / RFU, CREB1 / Fold change vs veh, CREB1 / RFU, DNAJC13 / Fold change vs veh, DNAJC13 / RFU, GNAQ / Fold change vs veh, GNAQ / RFU, CDK5R1 / Fold change vs veh, CDK5R1 / RFU, ZRANB3 / Fold change vs veh, ZRANB3 / RFU, CUL4A / Fold change vs veh, CUL4A / RFU, CCNY / Fold change vs veh, CCNY / RFU, UFL1 / Fold change vs veh, UFL1 / RFU, COG3 / Fold change vs veh, COG3 / RFU, DIAPH2 / Fold change vs veh, DIAPH2 / RFU, SKA2 / Fold change vs veh, SKA2 / RFU, AFF3 / Fold change vs veh, AFF3 / RFU, LMF1 / Fold change vs veh, LMF1 / RFU, IPO11 / Fold change vs veh, IPO11 / RFU, DFFB / Fold change vs veh, DFFB / RFU, FOXP1 / Fold change vs veh, FOXP1 / RFU, CARD8 / Fold change vs veh, CARD8 / RFU, STRN3 / Fold change vs veh, STRN3 / RFU, ADK / Fold change vs veh, ADK / RFU, RASSF2 / Fold change vs veh, RASSF2 / RFU, WIPF1 / Fold change vs veh, WIPF1 / RFU, LARP1B / Fold change vs veh, LARP1B / RFU, RASA1 / Fold change vs veh, RASA1 / RFU, RB1 / Fold change vs veh, RB1 / RFU, PPFIA1 / Fold change vs veh, PPFIA1 / RFU, MAT2A / Fold change vs veh, MAT2A / RFU, CCT5 / Fold change vs veh, CCT5 / RFU, WDR92 / Fold change vs veh, WDR92 / RFU, CUX1 / Fold change vs veh, CUX1 / RFU, TTC7A / Fold change vs veh, TTC7A / RFU, TMEM135 / Fold change vs veh, TMEM135 / RFU, DEPTOR / Fold change vs veh, DEPTOR / RFU, CPM / Fold change vs veh, CPM / RFU, DNAJB6 / Fold change vs veh, DNAJB6 / RFU, CACNA2D3 / Fold change vs veh, CACNA2D3 / RFU, DTX4 / Fold change vs veh, DTX4 / RFU, TFCP2 / Fold change vs veh, TFCP2 / RFU, GMCL1 /// GMCL1P1 / Fold change vs veh, GMCL1 /// GMCL1P1 / RFU, AEBP2 / Fold change vs veh, AEBP2 / RFU, SNHG1 /// SNORD22 /// SNORD25 /// SNORD26 /// SNORD27 /// SNORD28 /// SNORD29 /// SNORD31 / Fold change vs veh, SNHG1 /// SNORD22 /// SNORD25 /// SNORD26 /// SNORD27 /// SNORD28 /// SNORD29 /// SNORD31 / Fold change (Aza/veh), C12orf56 (ProbeSet 11735607_a_at) / Fold change (ACY-1035/veh), C12orf56 (ProbeSet 11735607_a_at) / Fold change (Aza/veh), FGFR1OP (ProbeSet 11751329_s_at) / Fold change (ACY-1035/veh), FGFR1OP (ProbeSet 11751329_s_at) / Fold change (Aza/veh), VPS36 (ProbeSet 11739960_a_at) / Fold change (ACY-1035/veh), VPS36 (ProbeSet 11739960_a_at) / RFU SYPL1 (11715823_x_at) / Fold change /veh SYPL1 (11715823_x_at) / RFU IGFBP7 (11715501_s_at) / Fold change /veh IGFBP7 (11715501_s_at) / RFU REEP3 (11722064_at) / Fold change /veh REEP3 (11722064_at) / RFU IGLL1 (11728026_x_at) / Fold change /veh IGLL1 (11728026_x_at): dose or concentration left out as unconfirmed", "conditions": "ProbeSet 11758779_at; LIST B"}
{"smiles": "Nc1ccc(-c2cccs2)cc1NC(=O)c1ccc2c(c1)cc(C1CC1)n2CCN1CCOCC1", "note": "[ACY-1035]", "values": [{"measurement": "Fold change vs veh, TMEM50B", "value": 0.95}]}
